SMILES strings stand for the structures. Active and inactive are the calls of the source. The rule behind the calls is not given here.

The test system of data set [1] is Trypanosoma brucei brucei. Briefly: Antitrypanosomal activity against Trypanosoma brucei brucei Squib 427 after 48 hrs by alamar blue assay. In kind it is functional, organism-based. The conditions noted are these: Squib 427, 48 h.
The test system of data set [2] is Trypanosoma cruzi. The data set is described as follows: Potency index, ratio of EC50 for benznidazole to EC50 for test compound for antitrypanosomal activity against nifurtimox-sensitive Trypanosoma cruzi Tulahuen CL2 harboring beta-galactosidase infected in human MRC5 cells after 7 days by resazurin dye-based assay. The format is functional.
A short description of data set [3]: Selectivity index, ratio of EC50 for human MRC5 cells to EC50 for Trypanosoma brucei brucei Squib 427. The note with it: read-out: Ratio EC50. The format is toxicity.
Data set [4] concerns MRC5. Briefly: Cytotoxicity against human MRC5 cells assessed as reduction in cell viability after 3 days by resazurin dye-based assay. The conditions noted are these: MRC5, 72 h.
Data set [5] can be described thus: Selectivity index, ratio of EC50 for human MRC5 cells to EC50 for nifurtimox-sensitive Trypanosoma cruzi Tulahuen CL2 harboring beta-galactosidase. The note with it: read-out: Ratio EC50. In kind it is toxicity.
Data set [6] has as its system Trypanosoma brucei. Briefly: (§1) Inhibition of [3H]-adenosine transport at Trypanosoma brucei Adenosine transporter P2 expressed in pentamidine/diminazene/melaminophenyl arsenical resistant Trypanosoma brucei B48 bloodstream forms after 60 secs by scintillation counting analysis.
The subject of data set [7] is Trypanosoma brucei. The data set is described as follows: (§2) Inhibition of [3H]-adenosine transport at Trypanosoma brucei Adenosine transporter P1 expressed in pentamidine/diminazene/melaminophenyl arsenical resistant Trypanosoma brucei B48 bloodstream forms after 60 secs by scintillation counting analysis.
For data set [8], the system named is Trypanosoma brucei. The data set is described as follows: Antitrypanosomal activity against pentamidine/diminazene/melaminophenyl arsenical resistant Trypanosoma brucei B48 after 48 hrs by alamar blue assay. The format is functional, organism-based. The conditions noted are these: B48, 48 h.
For data set [9], the system named is Trypanosoma brucei. Briefly: Antitrypanosomal activity against isometamidium resistant Trypanosoma brucei ISMR1 after 48 hrs by alamar blue assay. The format is functional, organism-based. The note with it: ISMR1, 48 h.
Data set [10] has as its system Trypanosoma brucei. The data set is described as follows: Antitrypanosomal activity against Trypanosoma brucei TbAT1-KO after 48 hrs by alamar blue assay. In kind it is functional, organism-based.
The subject of data set [11] is Trypanosoma congolense. Briefly: Antitrypanosomal activity against Trypanosoma congolense by resazurin assay. The format is functional, organism-based.
Data set [12] deals with Trypanosoma brucei. The data set is described as follows: Antitrypanosomal activity against wild type Trypanosoma brucei Lister 427 after 48 hrs by alamar blue assay. In kind it is functional, organism-based. The conditions noted are these: Lister 427, 48 h.
The subject of data set [13] is Trypanosoma cruzi. The data set is described as follows: Antitrypanosomal activity against nifurtimox-sensitive Trypanosoma cruzi Tulahuen CL2 harboring beta-galactosidase infected in human MRC5 cells after 7 days by resazurin dye-based assay. The format is functional, organism-based. The conditions noted are these: for EC50: Tulahuen CL2, MRC5, 168 h.
Data set [14] can be described thus: Selectivity index, ratio of EC50 for human MRC5 cells to EC50 for Trypanosoma brucei rhodesiense STIB-900. The format is toxicity. The note with it: read-out: Ratio EC50.
For data set [15], the system named is Trypanosoma brucei rhodesiense. The data set is described as follows: Antitrypanosomal activity against Trypanosoma brucei rhodesiense STIB-900 after 48 hrs by alamar blue assay. In kind it is functional, organism-based. The note with it: STIB-900, 48 h.
Data set [16] concerns Peritoneal macrophage. Briefly: Cytotoxicity against Swiss mouse primary peritoneal macrophages assessed as reduction in cell viability after 5 days. The format is cell-based. The conditions noted are these: 120 h.
For data set [17], the system named is Leishmania infantum. The data set is described as follows: Antileishmanial activity against Leishmania infantum amastigotes infected in Swiss mouse primary peritoneal macrophages assessed as reduction in parasite burden after 5 days by Giemsa staining-based microscopic analysis. The format is functional, organism-based. The conditions noted are these: 120 h.

Data set [18] can be described thus: as §1.
The nature of data set [19]: as §2.

With `Nc1ncnc2c1c(-c1ccc(Cl)cc1)cn2[C@@H]1O[C@H](CO)[C@@H](O)[C@H]1O`, the EC50 was 7.58 µM in data set [1] and 27 µM in data set [4]. For the same molecule, the “Ratio EC50” value in [2] was “<=10”. Besides, the selectivity ratio in data set [3] came to 3.6; in [5], 57.4.
As for `Nc1ncnc2c1ncn2[C@@H]1O[C@H](CO)[C@@H](O)[C@H]1O`, the Km turned out to be 0.53 µM in data set [6] and 0.16 µM in data set [7].
For the molecule `N=C(N)c1ccc(/N=N/Nc2ccc(C(=N)N)cc2)cc1` [DIMINAZENE], the EC50 in data set [8] came out at 7.2 µM; in data set [9], 2.9 µM; in data set [10] it was 4.5 µM; in [11] it was 0.22 µM; in [12] it was 0.42 µM.
On to `Nc1ncnc2c1c(-c1cc(Cl)cc(Cl)c1)cn2[C@@H]1O[C@H](CO)[C@@H](O)[C@H]1O`, for which the EC50 is 8.17 µM in data set [1], more than 64 µM in data set [4] and 3.66 µM in data set [15]. Also, the outcome in data set [13] was inactive. Also, the selectivity ratio in [3] is more than 7.8; in data set [14], more than 17.
As for `Nc1ncnc2c1c(-c1cccc(Cl)n1)cn2[C@@H]1O[C@H](CO)[C@@H](O)[C@H]1O`, the results for the EC50 in [1], in data set [4] and in data set [15] were 1.75 µM, more than 64 µM and 0.62 µM, respectively. The outcome in [13] was inactive. Also, the figures for the selectivity ratio in data set [3] and in data set [14] were more than 37 and more than 103, respectively.
With `Nc1ncnc2c1c(-c1ccc(Cl)c(Cl)c1)cn2[C@@H]1O[C@H](CO)[C@@H](O)[C@H]1O`, the EC50 was found to be 20 µM in data set [16] (Mus musculus, Swiss, Peritoneal macrophage); 3.07 µM in [1]; 0.19 µM in [13]; 1.67 µM in data set [17]; 14.7 µM in data set [4]; 0.32 µM in [15]. Further, in data set [2], the “Ratio EC50” value is “<=10”. Further, the selectivity ratio was 4.8 in data set [3], 46 in [14] and 77.4 in [5].
In the case of `Nc1ncnc2c1c(-c1cc(Cl)ccn1)cn2[C@@H]1O[C@H](CO)[C@@H](O)[C@H]1O`, the EC50 was 8.92 µM in data set [1], 27.3 µM in data set [4] and 6.88 µM in data set [15]. Moreover, the outcome in data set [13] was inactive. Besides, the selectivity ratio in data set [3] was found to be 3.1; in data set [14] it was 4.
Consider `O=C(Cn1ccnc1[N+](=O)[O-])NCc1ccccc1` [BENZNIDAZOLE], for which the EC50 in data set [4] was more than 64 µM. Also, in data set [5], the selectivity ratio is more than 23.
Take `Cc1ccnc(-c2cn([C@@H]3O[C@H](CO)[C@@H](O)[C@H]3O)c3ncnc(N)c23)c1`: the results for the EC50 in [1], in data set [4] and in [15] were 38.2 µM, more than 64 µM and 25.1 µM, respectively. Moreover, the result in data set [13] was inactive. The selectivity ratio in [3] is more than 1.7; in [14] it was more than 2.5.
As for `Nc1ncnc2c1c(-c1ccncc1)cn2[C@@H]1O[C@H](CO)[C@@H](O)[C@H]1O`, the EC50 in [1] was more than 64 µM; in data set [4], 55.8 µM. Besides, the result in data set [13] was inactive. The Ki in [18] amounted to 9.34 µM; in data set [19], 12.5 µM.
Consider `Nc1ncnc2c1c(-c1ccc3ccccc3n1)cn2[C@@H]1O[C@H](CO)[C@@H](O)[C@H]1O`, for which the EC50 in [1] was 6.45 µM; in data set [4], more than 64 µM; in data set [15] it was 3.72 µM. Also, in data set [13], the result was inactive. Further, the results for the selectivity ratio in [3] and in data set [14] were more than 9.9 and more than 17, respectively.
For `CC[n+]1c(-c2ccccc2)c2cc(N/N=N/c3cccc(C(=N)N)c3)ccc2c2ccc(N)cc21` [ISOMETAMIDIUM], the EC50 in data set [8] turned out to be 0.56 µM; in data set [9], 3.1 µM; in [10] it was 0.75 µM; in [12] it was 0.65 µM.
Consider `Nc1ncnc2c1c(-c1cccnc1)cn2[C@@H]1O[C@H](CO)[C@@H](O)[C@H]1O`, for which the EC50 in data set [1] and in data set [4] was more than 64 µM each time. For the same molecule, in [13], the result was inactive. The Ki in data set [18] stood at 49.3 µM; in data set [19], 21.7 µM.
Turning to `Nc1ncnc2c1c(-c1cc3ccccc3cn1)cn2[C@@H]1O[C@H](CO)[C@@H](O)[C@H]1O`, the values for the EC50 in data set [1], in data set [4] and in data set [15] were 14.7 µM, more than 64 µM and 6.16 µM, respectively. In data set [13], the result was inactive. Also, the values for the selectivity ratio in data set [3] and in data set [14] were more than 4.4 and more than 10, respectively.
In the case of `Nc1ncnc2c1ccn2[C@@H]1O[C@H](CO)[C@@H](O)[C@H]1O` [TUBERCIDIN], in [16] (mouse, peritoneal macrophage), the Activity result is listed as “Toxic”. Moreover, the EC50 in [1] turned out to be 0.48 µM; in [8], 4.3 µM; in data set [9], 1.7 µM; in data set [10], 2.61 µM; in data set [13], 0.34 µM; in [17], 0.13 µM. Moreover, the EC50 came to 2.23 µM in data set [4] and 0.15 µM in data set [12]. Also, the selectivity ratio turned out to be 4.6 in data set [3] and 6.5 in data set [5]. Also, the inhibitory constant (Ki) in data set [18] came out at 3.8 µM; in [19], 78 µM.
In the case of `N=C(N)c1ccc(OCCCCCOc2ccc(C(=N)N)cc2)cc1` [PENTAMIDINE], the EC50 turned out to be 0.99 µM in data set [8]; 0.14 µM in data set [9]; 0.018 µM in [10]; 1.9 µM in data set [11]; 0.011 µM in [12].
Turning to `Nc1ncnc2c1c(-c1ccc(F)cc1)cn2[C@@H]1O[C@H](CO)[C@@H](O)[C@H]1O`, the EC50 in data set [1] was 8.81 µM; in data set [13] it was 0.49 µM; in [4], more than 64 µM; in data set [15] it was 14.7 µM. Further, the “Ratio EC50” value in [2] is listed as “<=10”. Besides, the selectivity ratio in data set [3] is more than 7.3; in data set [14] it was more than 4.4; in data set [5] it was more than 130.
For `Nc1ncnc2c1c(-c1ccc(F)cn1)cn2[C@@H]1O[C@H](CO)[C@@H](O)[C@H]1O`, the EC50 in [1] was 4.77 µM; in [4] it was more than 64 µM; in data set [15], 1.69 µM. For the same molecule, in data set [13], the result was inactive. The selectivity ratio in [3] is more than 13; in [14] it was more than 38.
In the case of `Nc1ncnc2c1c(-c1ccc(Cl)cn1)cn2[C@@H]1O[C@H](CO)[C@@H](O)[C@H]1O`, the EC50 in data set [1] is 8.97 µM; in [4] it was more than 64 µM; in data set [15], 4.6 µM. In addition, the outcome in [13] was inactive. Besides, the selectivity ratio was more than 7.1 in data set [3] and more than 13 in data set [14].
For the molecule `Nc1ncnc2c1c(-c1ccccc1)cn2[C@@H]1O[C@H](CO)[C@@H](O)[C@H]1O`, the EC50 in [1] amounted to 32.3 µM; in data set [4] it was 56.2 µM; in data set [15], 4.1 µM. In [13], the outcome was inactive. For the same molecule, the selectivity ratio in data set [3] is 1.7; in [14], 14.

Values taken from ChEMBL document CHEMBL4422651, “Revisiting tubercidin against kinetoplastid parasites: Aromatic substitutions at position 7 improve activity and reduce toxicity” (Eur J Med Chem, 2019).
